Reference: patent US20260183302A1, “PDK1 REGULATORY COMPOUND AND COMPOSITION CONTAINING THE SAME” (PROVIBIO CO., LTD., priority 2024, published 2026)

Key:
[1] = test system: skin graft (BALB/c donor to C57BL/6 recipient); test: In vivo skin graft immune suppression model; design: species or system C57BL/6 mice; settings: 0.15 mg/kg twice daily
Experimental: To evaluate the immune-suppressive effects of the compounds according to the present invention, a skin graft animal model was established, and the efficacy of the compounds was analyzed in the model.
First, female BALB/c mice aged 7 weeks and weighing approximately 20 g were used as donor animals, and female C57BL/6 mice of the same age and weight were used as recipient animals. All experimental animals were supplied by HanabioTech Co., Ltd.
Prior to the experiment, the animals were acclimatized in SPF-certified facilities for one week and then used in the experiment. The housing conditions were maintained at a temperature of 22±2° C., relative humidity of 55+10%, and a 12-hour light-dark cycle.
To establish the skin graft model, a anesthetic solution consisting of ketamine, […], and PBS in a volume ratio of 1:1:3 was administered intraperitoneally to C57BL/6 mice to induce anesthesia.
The hair on the dorsal side of the anesthetized mice was removed and disinfected, followed by excision of the full-thickness skin using an 8 mm punch. Subsequently, skin of the same size was harvested from donor mice (BALB/c) and transplanted. […]
Subsequently, the proportions of CD3- and B220-positive cells were analyzed using a flow cytometer.

[2] = test system: Human Colorectal Carcinoma cell line, HCT-116; test: Relative cell viability, HCT-116 (CCK-8); assay type: cell-based; settings: 48 hours
Experimental: Human-derived breast cancer cell line MCF-7, human-derived lung cancer cell line A549, human-derived colorectal cancer cell line HCT-116, human pancreatic cancer cell line AsPC-1, glioblastoma cell line A172, and melanoma cell line Malme-3M were obtained from the Korean Cell Bank. gastric cancer cell line SNU-719, and bladder cancer cell line T24 were cultured in RPMI-1640 medium containing 10% FBS.
(§1) Following stabilization, the cells were harvested using Trypsin-EDTA treatment, centrifuged at 1,200 rpm for 3 minutes, the supernatant was removed, and the cells were resuspended in the same medium. They were then seeded into a 96-well plate (Costar 96-well cell culture plate, Corning) at 100 μL per well, and the conditions were adjusted as indicated in Table 5.
(§2) The cells were cultured in a 5% CO2 incubator at 37° C. for 24 hours, and after stabilization of the cells, each plate was washed with 200 μL of PBS per well and treated with 50 μL of culture medium per well.
(§3) After that, 10 μL of CCK-8 was added to each well, and the plate was incubated again at 37° C. in a 5% CO2 incubator for 2 hours.
(§4) In other words, when the survival rate of untreated cells (DMSO) is set at 100%, the relative cell survival rate in each group treated with the drug at different concentrations is indicated.

[3] = test system: Human Head and Neck cancer, Fadu; test: Relative cell viability, Fadu (CCK-8); assay type: cell-based; settings: relative to untreated cells
Experimental: Human-derived head and neck cancer cell line Fadu and osteosarcoma cell line Saos-2 were cultured in MEM medium containing 10% FBS, 100 U/mL penicillin, and 100 μg/mL streptomycin.
as §1, §2, §3, §4

[4] = test system: Human multiple myeloma, KMS26; test: Relative cell viability, KMS26 (CCK-8); assay type: cell-based; settings: KMS26, 1 μM
Experimental: as §3, §4

[5] = test system: HCT-116 colon cancer cell lines; test: Matrigel Invasion Assay on HCT-116 colon cancer cell line; assay type: cell-based, human; settings: HCT-116, Matrigel, 24 hours treatment, vs DMSO
Experimental: To evaluate the metastasis inhibitory efficacy of the compounds of the present invention on HCT-116 colon cancer cell lines, an Invasion Assay using Matrigel was performed to assess the cells' invasion ability.
First, Matrigel was thawed on ice in RPMI-1640 medium without FBS, then diluted with DMEM at a ratio of 1:20.
The diluted Matrigel mixture was applied to the upper chamber at 100 μl per well, and 750 μl of RPMI-1640 without FBS was added to the lower chamber.
The plates were then incubated at 37° C. for 1 hour to allow the Matrigel to solidify.
After coating, the Matrigel mixture in the upper chamber was removed using a pipette, and the chamber was washed with RPMI without FBS.
Human-derived colorectal cancer cell line HCT-116, obtained from the Korean Cell Bank, was cultured in RPMI-1640 medium containing 10% FBS.
Following stabilization, the cells were harvested using Trypsin-EDTA treatment, centrifuged at 1,200 rpm for 3 minutes, the supernatant was removed, and the cells were resuspended in the same medium, the medium in the lower chamber was replaced with 750 μl of RPMI-1640 supplemented with 10% FBS, and the cells were seeded into the upper chamber at a density of 5×10^4 cells/well.
The cells were cultured for 24 hours after attachment, and then the compounds according to the present invention (G078, G085, G086, G088, G089, PBK-2024-010, PBK-2025-010, PBK-2025-013, PBK-2025-016) and the control substance DMSO were diluted and added to the upper chamber after removing the medium.
Additionally, the medium in the lower chamber was replaced with fresh RPMI-1640 containing FBS, and the culture was continued.
After an additional 24 hours, the medium was removed, and 1 ml of methanol was added for 10 minutes to fix the cells.
Subsequently, 1 ml of Hematoxylin was added and reacted for 5 minutes, followed by 1 ml of Eosin, which was reacted for 30 seconds. The sample was then washed with distilled water (DW).
After staining was complete, any remaining cells in the upper chamber were removed. Finally, the infiltrated cells were observed under a microscope, photographed, and the degree of infiltration was analyzed.

Molecule	animals with graft pinkening and good blood flow ([1]; day 10 post-transplantation)	animals with graft pinkening and good blood flow ([1]; day 15 post-transplantation)	Relative cell viability (%) ([2]; HCT-116, 1 μM)	Relative cell viability (%) ([2]; HCT-116, 10 μM)	Relative cell viability (%) ([2]; HCT-116, 30 μM)	Relative cell viability (%) ([2]; HCT-116, 50 μM)	Relative cell viability (%) ([3]; concentration 1 μM)	Relative cell viability (%) ([3]; concentration 10 μM)	Relative cell viability (%) ([3]; concentration 30 μM)	Relative cell viability (%) ([3]; concentration 50 μM)	Relative cell viability (%) [4]	number of infiltrated cells (invasion) [5]
Nc1ncccc1C(=O)NCCCCCCCCCCCCN1CCNCC1 [Compound 14, 2-Amino-N-(12-(piperazin-1-yl)dodecyl)nicotinamide]	three out of five	one out of five	–	–	–	–	–	–	–	–	–	–
12-[4-(2,2-dimethylmorpholin-4-yl)]dodecyl-N-(6-aminopurine-2-yl) carboxamide [Compound 11]	–	–	21.36%	24.91%	24.78%	25.26%	2.08%	9.68%	8.51%	4.78%	31.19%	reduction in the number of infiltrated cells
